From patent publication US20050215529A1, “Method of treating oxidative stress-associated conditions with isopentenyl diphosphate” (THE REGENTS OF THE UNIVERSITY OF MICHIGAN, priority 2004, published 2005)

Columns and labels:
[1] = test system: human fibroblastoid M1 cells; assay: Comet assay, inhibition of 2CA- or IPP-mediated DNA damage protection by antagonists/inhibitors; type: cell-based; settings: for effect on 2CA-mediated DNA damage protection / effect on IPP-mediated DNA damage protection: M1 cells pre-incubated with antagonist/inhibitor (lactacystin 5 μM, lovastatin 5 μM, GGTI-2147 0.2 μM, FTI-277 1 μM; others various concentrations), then 100 μM H2O2; for effect on 2CA-mediated DNA damage protection: then 2CA; for IC50: AR antagonists, M1 cells, 100 μM H2O2, Comet assay, read-out: IC50 (pM), block of 2CA-mediated DNA damage protection; for effect on IPP-mediated DNA damage protection: then IPP
Protocol: (§1) A single-cell gel electrophoresis (SCGE) assay, known as the “Comer” assay was performed to detect/quantify DNA damage by identifying DNA-strand breakage in individual cells, for example. The assay was performed using a kit commercially-available from Trevigen, Inc., of Gaithersburg, Md., as “CometAssay™.” See P. J. McCarthy et al. (1997) Mutagenesis 12:209-214; A. R. Collins et al. (2001) Biochem. Soc. Trans. 29:337-341. Sub-confluent cells were washed with phosphate buffered saline (PBS) and detached from the tissue culture flasks using a 0.05% trypsin solution. After centrifugation, the cells were washed and re-suspended in serum-free DMEM medium. The cells were divided into Eppendorf tubes (1.5 ml), and centrifuged at 2500 rotations per minutes (rpm) for ten minutes. Signal-modulating agents were added and samples were kept in a 37° C. incubator for thirty minutes. In some experiments, the cells were pre-incubated with various inhibitors for the indicated times at 37° C. At the end of the incubation period with signal-modulating chemicals, the cells were washed with PBS and treated with 100 μM H2O2 in 0.5 ml PBS on ice for twenty minutes. Following the hydrogen peroxide treatment, the cells were immediately microfuged for fifteen seconds. The cells were twice washed with cold PBS, and re-suspended at 1.0×10^5 cells/ml in ice-cold PBS. Five microliter cell suspension were each mixed with 50 μl molten LMAgarose and, thereafter, the mixtures were placed onto slides (CometSlide™).
(§2) The slides were placed at 4° C. in the dark for ten minutes and subsequently immersed in pre-chilled Lysis Solution at 4° C. for an additional thirty minutes. Following this incubation, excess buffer was tapped off from the slides. Subsequently, the slides were placed in a 50 ml Coplin jar containing alkali buffer for thirty minutes at room temperature in the dark and then immersed in 50 ml of TBE buffer for five minutes. The slides were then placed flat onto a gel tray submerged in TBE buffer in a horizontal electrophoresis apparatus, and aligned equidistant from the electrodes. Electrophoresis was performed at one volt per centimeter (cm) for ten minutes. Following this electrophoresis, the samples were fixed in 100% methanol for five minutes and 100% ethanol for five minutes. After drying, 50 μl of diluted SYBR Green Concentrate was added onto each circle of agarose. Comet tail fluorescence intensity was quantified with a Diagnostic Instruments digitized camera, mounted on a Nikon Eclipse E400 microscope, using Scion Image software. Quantification of comet fluorescence was performed as described in P. J. McCarthy et al. (1997) Mutagenesis 12:209-214. Each data point was derived from 30 to 100 individual cells. The data are shown either in arbitrary fluorescent units, or as % DNA damage protection (i.e., the percent decrement in tail fluorescence intensity with test reagent, relative to the intensity recorded in cells treated with hydrogen peroxide only)±S.E.M.
Specifically, […], human fibroblastoid M1 cells were incubated for thirty minutes in either H-89 or 8-bromoguanosine-3′,5′-cyclic monophosphate (8-Br-cGMP) (B), or for fifteen minutes in SNAP, at different concentrations. […] Following induction of oxidative stress, DNA damage was quantified using the Comet assay, as described above. Shown in FIGS. 14-16 are graphs illustrating the DNA damage protection as function of the molar concentration of H-89 (FIG. 14), 8-Br-cGMP (FIG. 15), and SNAP (FIG. 16).
In yet another test, human fibroblastoid M1 cells were pre-incubated for fifteen minutes with different concentrations of the A2bAR antagonist, enprofylline (Enpro).

[2] = test system: human fibroblastoid M1 cells; assay: Comet assay, protection against H2O2-induced DNA damage; type: cell-based; settings: M1 cells; for IC50: AR agonists and isoprenyls, 100 μM H2O2, Comet assay, read-out: IC50 (pM), DNA damage protection; for triggering of DNA damage protection: various concentrations, 100 μM H2O2
Protocol: as §1, §2
A dose response analysis of DNA damage protection also was performed to determine the efficacy of various doses of isopentenyl diphosphate versus 2-chloroadenosine. The analysis was carried out by pre-incubating human fibroblastoid M1 cells for thirty minutes with different concentrations of isopentenyl diphosphate or 2-chloroadenosine prior to incubating the cells with 100 μM H2O2 to induce oxidative stress. Following induction of oxidative stress, DNA damage was quantified using the Comet assay, as described above.

[3] = test system: A1AR-transfected HEK293 cells; assay: Comet assay in A1AR-transfected HEK293 cells; type: cell-based, human; settings: A1AR-transfected HEK293 cells, 100 μM H2O2
Protocol: A single-cell gel electrophoresis (SCGE) assay, known as the “Comer” assay was performed to detect/quantify DNA damage by identifying DNA-strand breakage in individual cells, for example. The assay was performed using a kit commercially-available from Trevigen, Inc., of Gaithersburg, Md., as “CometAssay™.” See P. J. McCarthy et al. (1997) Mutagenesis 12:209-214; A. R. Collins et al. (2001) Biochem. Soc. Trans. 29:337-341. Sub-confluent cells were washed with phosphate buffered saline (PBS) and detached from the tissue culture flasks using a 0.05% trypsin solution. After centrifugation, the cells were washed and re-suspended in serum-free DMEM medium. The cells were divided into Eppendorf tubes (1.5 ml), and centrifuged at 2500 rotations per minutes (rpm) for ten minutes. Signal-modulating agents were added and samples were kept in a 37° C. incubator for thirty minutes. In some experiments, the cells were pre-incubated with various inhibitors for the indicated times at 37° C. At the end of the incubation period with signal-modulating chemicals, the cells were washed with PBS and treated with 100 μM H2O2 in 0.5 ml PBS on ice for twenty minutes. Following the hydrogen peroxide treatment, the cells were immediately microfuged for fifteen seconds. The cells were twice washed with cold PBS, and re-suspended at 1.0×10^5 cells/ml in ice-cold PBS. […]
The slides were placed at 4° C. in the dark for ten minutes and subsequently immersed in pre-chilled Lysis Solution at 4° C. for an additional thirty minutes. […] Comet tail fluorescence intensity was quantified with a Diagnostic Instruments digitized camera, mounted on a Nikon Eclipse E400 microscope, using Scion Image software. Quantification of comet fluorescence was performed as described in P. J. McCarthy et al. (1997) Mutagenesis 12:209-214. […] The data are shown either in arbitrary fluorescent units, or as % DNA damage protection (i.e., the percent decrement in tail fluorescence intensity with test reagent, relative to the intensity recorded in cells treated with hydrogen peroxide only)±S.E.M. […]

Compound	effect on 2CA-mediated DNA damage protection [1]	triggering of DNA damage protection [2]	effect on IPP-mediated DNA damage protection [1]	also measured
CC(=O)N[C@@H](C(=O)O)C(C)(C)SN=O (racemic) [SNAP]	dose-dependent inhibition of 2CA-mediated antioxidative signal	–	–	–
CC(C)=CCC/C(C)=C/CC/C(C)=C/CO[P@@](=O)(O)OP(=O)(O)O (stereo in doubt) [FPP, farnesyl diphosphate]	–	–	–	IC50 ([2]; Homo sapiens): > 1e+07 pM
Nc1ncnc2c1nc(Br)n2[C@@H]1O[C@@H]2COP(=O)(O)O[C@H]2[C@H]1O [8-Br-cAMP, 8-bromo adenosine 3′,5′-cyclic monophosphate]	–	produced similar protection against oxidative DNA damage	–	DNA damage protection response [3]: responded efficiently
Nc1nc2c(nc(Br)n2[C@@H]2O[C@@H]3COP(=O)(O)O[C@H]3[C@H]2O)c(=O)[nH]1 [8-Br-cGMP, 8-bromoguanosine-3′,5′-cyclic monophosphate]	dose-dependent inhibition of 2CA-mediated antioxidative signal	–	–	–
CCNC(=O)[C@H]1O[C@@H](n2cnc3c(N)nc(NCCc4ccc(CCC(=O)O)cc4)nc32)[C@H](O)[C@@H]1O [CGS21680, 2-[p-2-(carbonyl-ethyl)-phenyethylamino]-5′-N-ethylcarboxaminoadenosine]	–	failed to transduce the signal	–	IC50 ([2]; Homo sapiens): > 3e+07 pM
Cn1c(=O)c2c(nc(C=Cc3cccc(Cl)c3)n2C)n(C)c1=O [CSC, 8-(3-chlorostyryl) caffeine]	failed to block 2CA-mediated DNA damage protection	–	–	IC50 ([1]; Homo sapiens): > 1e+07 pM
CCCn1c(=O)c2[nH]c(C3CCCC3)nc2n(CCC)c1=O [DPCPX, [(3)H]1,3-dipropyl-8-cyclopentylxanthine]	failed to block 2CA-mediated DNA damage protection	–	–	IC50 [1]: > 1e+07 pM
CCCn1c(=O)[nH]c(=O)c2nc[nH]c21 [Enprofylline, enprofylline]	effectively blocked the signal	–	the IPP-mediated effect was resistant	IC50 [1]: 1.8e+06 pM
COC(=O)[C@H](CCSC)NC(=O)c1ccc(NC[C@@H](N)CS)cc1-c1ccccc1 [FTI-277]	Neither GGTI-2147 (FIG. 24B) nor FTI-277 (FIG. 25) had a significant effect	–	had no effect on isopentenyl diphosphate activity	–
CC(C)=CCC/C(C)=C/CC/C(C)=C/CC/C(C)=C/COP(=O)(O)OP(=O)(O)O [GGPP, geranylgeranyl diphosphate]	–	effective in triggering antioxidative activity	–	IC50 [2]: 660 pM
COC(=O)[C@H](CC(C)C)NC(=O)c1ccc(NCc2cnc[nH]2)cc1-c1cccc2ccccc12 [GGTI-2147]	Neither GGTI-2147 (FIG. 24B) nor FTI-277 (FIG. 25) had a significant effect	–	effectively blocked IPP-mediated DNA damage protection	–
O=S(=O)(NCCNCC=Cc1ccc(Br)cc1)c1cccc2cnccc12 [H-89, N-[2-(p-bromocynnamylamino)ethyl]-5-isoquinolinesulfonamide]	dose-dependent inhibition of 2CA-mediated antioxidative signal	–	the IPP-mediated effect was resistant	–
CNC(=O)[C@H]1O[C@@H](n2cnc3c(NCc4cccc(I)c4)ncnc32)[C@H](O)[C@@H]1O [IB-MECA, N6-(3-iodobenzyl)adenosine-5′-N-methyluronamide]	–	failed to transduce the signal	–	IC50 [2]: > 1e+07 pM
C=C(C)CCOP(=O)(O)O [IMP, isopentenyl monophosphate]	–	failed to trigger antioxidative signaling	–	IC50 [2]: > 1e+07 pM
CCNC(=O)C1OC(n2cnc3c(N)ncnc32)C(O)C1O (centres unmarked) [NECA, 5′-(N-ethylcarboxyamido)-adenosine]	–	triggered DNA damage protection	–	IC50 [2]: < 1000 pM
CCCCC[C@H](O)/C=C/[C@H]1[C@H](O)CC(=O)[C@@H]1CCCCCCC(=O)O [PGE1, Prostaglandin E1]	–	induction of resistance to oxidative DNA damage	–	–
CCCn1c(=O)c2[nH]c(-c3ccc(OCC(=O)NCCN)cc3)nc2n(CCC)c1=O [XAC, xanthine amine congener]	effectively blocked the signal	–	–	IC50 [1]: 3.2e+06 pM
CC(=O)N[C@@H](CSC(=O)[C@]1([C@@H](O)C(C)C)NC(=O)[C@H](C)[C@@H]1O)C(=O)O [lactacystin]	did not similarly block 2CA-mediated DNA damage protection signaling	–	blocked IPP-mediated DNA damage protection signaling	–
CC[C@H](C)C(=O)O[C@H]1C[C@@H](C)C=C2C=C[C@H](C)[C@H](CC[C@@H]3C[C@@H](O)CC(=O)O3)[C@H]21 [lovastatin]	did not similarly block 2CA-mediated DNA damage protection signaling	–	completely blocked IPP-mediated DNA damage protection signaling	–
